Experimental data taken from BigSolDB 2.1.

CO/N=C(/C(=O)N[C@@H]1C(=O)N2C(C(=O)O)=C(COC(N)=O)CS[C@H]12)c1ccco1
solubility (mole fraction)
Settings	278.5 K	283.4 K	288.3 K	293.3 K	298.3 K	303.5 K	308.3 K	313.4 K
in acetone	0.00362	0.0036	0.00355	0.00342	0.00337	0.00331	0.00327	0.00324
in ethanol	0.00019	0.00022	0.00028	0.00032	0.00037	0.00052	0.00056	0.00061
in isopropanol	6e-05	9e-05	0.00011	0.00012	0.00012	0.00015	0.00027	0.00032
in water	3e-05	4e-05	4e-05	6e-05	7e-05	0.00012	0.00022	0.00026
